Results taken from patent US20090155784A1, “ASSESSMENT OF ASTHMA AND ALLERGEN-DEPENDENT GENE EXPRESSION” (Wyeth, priority 2007, published 2009).

Test system: PBMCs from healthy volunteers
Assay: HG-U133A baseline gene expression in PBMCs of healthy volunteers (HV), cPLA2 inhibitor in the absence of allergen (no AG)
Format: cell-based, human
From the text: PBMCs were stimulated in vitro with a cocktail containing 4 different allergens from house dust mite, ragweed and cat. Recombinant allergens, Der p1, Der f2, Fel d1 (Indoor Biotech, Charlottesville, Va.) and natural ragweed allergen (Allergy Lab, Seattle, Wash.) were selected and screened for endotoxin contamination (LAL Endotoxin Test, Catalog #HIT302, sensitivity, 0.0001 Eu/ml, Cell Sciences, Canton, Mass.). The sensitivity of the subjects was unknown but the allergens were chosen based on the estimate that 80% of allergic individuals are believed to react to one or more of these allergens. Culture medium contained RPMI-1640 (Sigma) with 10% heat inactivated FCS (Sigma St. Louis, Mo.) and 100 unit/mL Penicillin and […] Streptomycin and 0.292 mg/mL Glutamine (GIBCO RL Invitrogen, Carlsbad, Calif.). The final allergen cocktail concentrations in culture medium were: Der p1 and Der f2 (dust mite), 1 mg/ml; Fel d1 (cat), 1.25 mg/ml; ragweed, 125 mg/ml. The total level of endotoxin contamination in culture medium was 0.057 Eu/ml. The cPLA2 inhibitor 4-{3-[1-benzhydryl-5-chloro-2-(2-{[(2,6-dimethylbenzyl)sulfonyl]amino}ethyl)-1H-indol-3-yl]propyl}benzoic acid was used at a concentration of 0.3 μM/ml. Zileuton, a 5-lipoxygenase inhibitor, was added at a concentration of 5 μM. The inhibitory activity of both the cPLA2 inhibitor and Zileuton samples were verified in a human whole blood assay. After 6 days in culture approximately 200 μL of supernatant was removed using an 8-channel pipettor without disturbing the cell pellet and placed into a collection plate for cytokine ELISA assays. To the remaining cell pellet 100 μL of RLT lysis buffer containing 1% beta-mercaptoethanol was added and snap frozen for RNA purification.
RNA was purified using QIA shredders and Rneasy mini kits (Qiagen, Valencia, Calif.). PBMC pellets frozen in RLT lysis buffer containing 1% β-mercaptoethanol were thawed and processed for total RNA isolation using the QIA shredder and RNeasy mini kit. A phenol:chloroform extraction was then performed, and the RNA was repurified using the RNeasy mini kit reagents. Eluted RNA was quantified using a Spectramax96 well plate UV reader (Molecular Devices, Sunnyvale, Calif., USA) monitoring A260/280 OD values. The quality of each RNA sample was assessed by capillary electrophoresis alongside an RNA molecular weight ladder on the Agilent 2100 bioanalyzer (Agilent Technologies, Palo Alto, Calif., USA). RNA samples were assigned quality values of intact (distinct 18S and 28S bands); partially degraded (discernible 18S and 28S bands with presence of low molecular weight bands) or completely degraded (no discernible 18S and 28S bands).
Labeled targets for oligonucleotide arrays were prepared using a modification of the procedure described by Lockhart et al. (Lockhart (1996) Nat. Biotechnol. 14:1675-80). Labeled targets were hybridized to the HG-U133A Affymetrix GeneChip Array as described in the Affymetrix technical manual. Eleven biotinylated control transcripts ranging in abundance from 3 parts per million (ppm) to 100 ppm were spiked into each sample to function as a standard curve (Hill (2001) Genome Biol. 2:RESEARCH0055). GeneChip MAS 5.0 software was used to evaluate the hybridization intensity, compute the signal value for each probe set and make an absent/present call.
GeneChips were required to pass the pre-set quality control criteria that the RNA quality metric required a 5′:3′ ratio. Two asthma subjects were excluded from the study due to failure to meet the RNA quality metric and 2 GeneChips from the group treated with cPLA2a inhibitor were excluded for the same reason. The signal value for each probe set was converted into a frequency value representative of the number of transcripts present in 10^6 transcripts by reference to the standard curve (Hill (2001) Genome Biol. 2:RESEARCH0055). […]

For `Cc1cccc(C)c1CS(=O)(=O)NCCc1c(CCCc2ccc(C(=O)O)cc2)c2cc(Cl)ccc2n1C(c1ccccc1)c1ccccc1` [cPLA2 inhibitor, 4-{3-[1-benzhydryl-5-chloro-2-(2-{[(2,6-dimethylbenzyl)sulfonyl]amino}ethyl)-1H-indol-3-yl]propyl}benzoic acid], the “Fold Change cPLA2 inhibitor vs. no AG HV” value (probeset 208723_at, gene USP11) was 1.191 fold, the “Fold Change cPLA2 inhibitor vs. no AG HV” value (probeset 208735_s_at, gene CTDSP2) was 1.214 fold and the “Fold Change cPLA2 inhibitor vs. no AG HV” value (probeset 208881_x_at, gene IDI1) was 1.288 fold. The “Fold Change cPLA2 inhibitor vs. no AG HV” value (probeset 208962_s_at, gene UNK_BE540552) was 1.667 fold, the “Fold Change cPLA2 inhibitor vs. no AG HV” value (probeset 208963_x_at, gene FADS1) was 1.668 fold and the “Fold Change cPLA2 inhibitor vs. no AG HV” value (probeset 208992_s_at, gene STAT3) was 1.161 fold. The “Fold Change cPLA2 inhibitor vs. no AG HV” value (probeset 209417_s_at, gene IFI35) was 1.367 fold, the “Fold Change cPLA2 inhibitor vs. no AG HV” value (probeset 209949_at, gene NCF2) was 1.229 fold and the “Fold Change cPLA2 inhibitor vs. no AG HV” value (probeset 209969_s_at, gene STAT1) was 1.315 fold. For the same compound, the “Fold Change cPLA2 inhibitor vs. no AG HV” value (probeset 210029_at, gene INDO) was 2.207 fold, the “Fold Change cPLA2 inhibitor vs. no AG HV” value (probeset 210146_x_at, gene LILRB2) was 1.473 fold and the “Fold Change cPLA2 inhibitor vs. no AG HV” value (probeset 210176_at, gene TLR1) was 1.302 fold. For the same compound, the “Fold Change cPLA2 inhibitor vs. no AG HV” value (probeset 210495_x_at, gene FN1) was −16.2745 fold, the “Fold Change cPLA2 inhibitor vs. no AG HV” value (probeset 210524_x_at, gene UNK_AF078844) was 1.984 fold and the “Fold Change cPLA2 inhibitor vs. no AG HV” value (probeset 210754_s_at, gene LYN) was 1.482 fold. For the same compound, the “Fold Change cPLA2 inhibitor vs. no AG HV” value (probeset 210784_x_at, gene LILRB3) was 1.348 fold, the “Fold Change cPLA2 inhibitor vs. no AG HV” value (probeset 210962_s_at, gene AKAP9) was −1.163 fold and the “Fold Change cPLA2 inhibitor vs. no AG HV” value (probeset 211133_x_at, gene LILRB3) was 1.349 fold. For the same compound, the “Fold Change cPLA2 inhibitor vs. no AG HV” value (probeset 211135_x_at, gene LILRB3) was 1.416 fold, the “Fold Change cPLA2 inhibitor vs. no AG HV” value (probeset 211456_x_at, gene UNK_AF333388) was 2.494 fold and the “Fold Change cPLA2 inhibitor vs. no AG HV” value (probeset 211661_x_at, gene PTAFR) was 1.264 fold. For the same compound, the “Fold Change cPLA2 inhibitor vs. no AG HV” value (probeset 211719_x_at, gene FN1) was −18.8559 fold, the “Fold Change cPLA2 inhibitor vs. no AG HV” value (probeset 212066_s_at, gene USP34) was −1.173 fold and the “Fold Change cPLA2 inhibitor vs. no AG HV” value (probeset 212185_x_at, gene MT2A) was 2.359 fold. The “Fold Change cPLA2 inhibitor vs. no AG HV” value (probeset 212274_at, gene UNK_AV705559) was 1.2259 fold, the “Fold Change cPLA2 inhibitor vs. no AG HV” value (probeset 212318_at, gene TNPO3) was 1.195 fold and the “Fold Change cPLA2 inhibitor vs. no AG HV” value (probeset 212464_s_at, gene FN1) was −16.6219 fold. For the same compound, the “Fold Change cPLA2 inhibitor vs. no AG HV” value (probeset 212859_x_at, gene MT2A) was 2.114 fold, the “Fold Change cPLA2 inhibitor vs. no AG HV” value (probeset 212907_at, gene SLC30A1) was 1.527 fold and the “Fold Change cPLA2 inhibitor vs. no AG HV” value (probeset 213571_s_at, gene EIF4EL3) was 1.18 fold. The “Fold Change cPLA2 inhibitor vs. no AG HV” value (probeset 213629_x_at, gene MT1F) was 1.953 fold, the “Fold Change cPLA2 inhibitor vs. no AG HV” value (probeset 213716_s_at, gene SECTM1) was 1.603 fold and the “Fold Change cPLA2 inhibitor vs. no AG HV” value (probeset 214038_at, gene UNK_AI984980) was 2.289 fold. For the same compound, the “Fold Change cPLA2 inhibitor vs. no AG HV” value (probeset 214179_s_at, gene NFE2L1) was 1.302 fold, the “Fold Change cPLA2 inhibitor vs. no AG HV” value (probeset 214730_s_at, gene GLG1) was 1.22 fold and the “Fold Change cPLA2 inhibitor vs. no AG HV” value (probeset 215051_x_at, gene AIF1) was 1.464 fold. The “Fold Change cPLA2 inhibitor vs. no AG HV” value (probeset 215223_s_at, gene SOD2) was 1.584 fold, the “Fold Change cPLA2 inhibitor vs. no AG HV” value (probeset 216336_x_at, gene UNK_AL031602) was 1.748 fold and the “Fold Change cPLA2 inhibitor vs. no AG HV” value (probeset 216442_x_at, gene FN1) was −15.6848 fold. The “Fold Change cPLA2 inhibitor vs. no AG HV” value (probeset 216841_s_at, gene SOD2) was 1.463 fold, the “Fold Change cPLA2 inhibitor vs. no AG HV” value (probeset 217165_x_at, gene MT1F) was 2.496 fold and the “Fold Change cPLA2 inhibitor vs. no AG HV” value (probeset 217965_s_at, gene HCNGP) was 1.185 fold. For the same compound, the “Fold Change cPLA2 inhibitor vs. no AG HV” value (probeset 218154_at, gene FLJ12150) was 1.267 fold, the “Fold Change cPLA2 inhibitor vs. no AG HV” value (probeset 218472_s_at, gene PELO) was 1.163 fold and the “Fold Change cPLA2 inhibitor vs. no AG HV” value (probeset 219159_s_at, gene SLAMF7) was 1.736 fold. For the same compound, the “Fold Change cPLA2 inhibitor vs. no AG HV” value (probeset 219519_s_at, gene SN) was 2.441 fold, the “Fold Change cPLA2 inhibitor vs. no AG HV” value (probeset 219788_at, gene PILRA) was 1.371 fold and the “Fold Change cPLA2 inhibitor vs. no AG HV” value (probeset 221165_s_at, gene IL22) was 1.835 fold. For the same compound, the “Fold Change cPLA2 inhibitor vs. no AG HV” value (probeset 221558_s_at, gene LEF1) was −1.137 fold, the “Fold Change cPLA2 inhibitor vs. no AG HV” value (probeset 221581_s_at, gene WBSCR5) was 1.343 fold and the “Fold Change cPLA2 inhibitor vs. no AG HV” value (probeset 222218_s_at, gene PILRA) was 1.292 fold.
